Measurements taken from publication PMC5325331, “A steroid like phytochemical Antcin M is an anti-aging reagent that eliminates hyperglycemia-accelerated premature senescence in dermal fibroblasts by direct activation of Nrf2 and SIRT-1” (Oncotarget, 2016).
Read-outs that look alike come from different tables or passages of the source.

Columns and labels:
HNDFs [1] = assay: Cytotoxicity of antcins against HNDFs (MTT assay); type: cell-based, human; settings: for IC50: MTT assay, read-out: IC50 (50% inhibitory concentration) against HNDFs; for cytotoxicity to HNDFs up to the high treatment concentration: up to 20 μM, 72 h, MTT
Procedure: Figure 2 Effects of antcins on HG-induced senescence in HNDFs A. Type of antcins subjected to screen for potential anti-aging agents for skin aging. Names and chemical structures of the antcins are shown in the left and centrer column, respectively. The cytotoxic effects of antcins against HNDFs. Briefly, HNDFs were incubated with increasing concentrations (1, 5, 10 and 20 μM) of antcins including antcin A, antcin B, antcin C, antcin H, anticn K and antcin M for 72 h and the cell viability was determined by MTT assay. The 50% inhibitory concentrations (IC50) of each compound against HNDFs are shown in right column. B. Cells were incubated with antcin A (10 μM), antcin H (10 μM) and antcin M (10 μM) in the presence of HG (30 mM) for 72 h. Cellular senescence was determined by SA-β-gal activity. […] C. HNDFs were incubated with antcin A (10 μM), antcin H (10 μM) and antcin M (10 μM) in the presence of HG (30 mM) for 72 h. Senescence-associated marker proteins such as p16^INK4A, p21^CIP1 and SMP30 were determined by western blot analysis. D. To determine the effect of antcins on cell proliferation efficacy, HNDFs 5 × 10^4 cells/well in 6-well plates were incubated with antcins in the presence of HG (30 mM) for 72 h. Number of viable cells were quantified by the tryphan blue exclusion method. Results are expressed as mean ± S.E.M of three indipendent expriments. Statistical significance was et at ^ФP < 0.05 compared to NG vs HG and *P < 0.05 compared to HG vs. samples.
(§1) Human normal dermal fibroblasts (HNDFs, CCD966SK) and human umbilical vein endothelial cells (HUVECs) were obtained from the Bioresource Collection and Research Center (BCRC), Hsinchu, Taiwan. HNDFs were grown in MEM containing 10% FBS, 2 mM L-glutamine, 100 U/mL penicillin and streptomycin at 37°C in a fully humidified atmosphere of 5% CO2. Likewise, HUVECs were grown in M-199 medium supplemented with ECGS, heparin, 10% FBS and 100 U/mL penicillin and streptomycin at 37°C in a fully humidified atmosphere of 5% CO2. High-glucose treatment was performed by treating cells with 15 or 30 mM D-glucose (HG) for 24-72 h.
Cell viability was assessed by MTT colorimetric assay. Briefly, HNDFs (2 × 10^4 cells/well) or HUVECs (5 × 10^4 cells/well) were seeded in a 24-well culture plate. After treatment with HG (15 and 30 mM) in the presence or absence of samples for 24-72 h, culture media was withdrawn and incubated with MTT (1 mg/mL) in fresh medium for 2 h. The MTT formazan crystals were dissolved in 400 μL of DMSO and the samples were measured at 570 nm […] using an ELISA microplate reader (Bio-Tek Instruments, Winooski, VT). The percentage of cell viability (%) was calculated as (A570 of treated cells/A570 of untreated cells) × 100.

[2] = system: Nrf2 transcriptional activity (ARE promoter); assay: ARE luciferase reporter assay in HNDFs; type: cell-based, human; settings: for ANM-induced ARE luciferase activity after inhibitor pretreatment: inhibitor pre-incubation 2 h, then ANM 6 h in the presence of HG; for ARE luciferase activity: 6 h
Procedure: ARE promoter activity was measured using a dual-luciferase reporter assay system (Promega, Madison, WI). […] Cells were then transfected with ARE plasmid (Qiagen, Hilden, Germany) using Lipofectamine 2000 (Invitrogen) and incubated for 36 h. […] The cell lysate was prepared and incubated with luciferase agents and the relative luminescence intensity was quantified using a spectrophotometer (Hidex Oy, Turku, Finland).

HNDFs [3] = assay: SA-β-gal senescence assay in HG-induced HNDFs; type: cell-based, human; settings: for HG-induced SA-β-gal activity in kinase inhibitor-treated cells: inhibitor 30 μM with HG (30 mM) for 72 h (Figure 4H); for SA-β-gal positive cells: 10 μM with HG (30 mM) for 72 h, HG alone 9.59-fold (Figure 2B)
Procedure: as §1
Senescence-associated β-galactosidase (SA-β-gal) activity was determined in formaldehyde-fixed histochemical staining kit according to the manufacturer's instructions (Cell Signaling Technology, Danvers, […]). Briefly, cells were grown in 6-well plates at a density of 5 × 10^4 cells/well, and incubated with HG or test samples for 48 h (HUVECs) or 72 h (HNDFs). After incubation, cells were stained with SA-β-gal staining solution at pH 6.0 overnight and then the development of blue staining was observed and photographed under a bright-field microscope (Motic Electric Group, Xiamen, P.R. China).

HNDFs [4] = assay: Cell proliferation, trypan blue exclusion assay in HG-induced HNDFs; type: cell-based, human; settings: with HG (30 mM) for 72 h (Figure 2D)
Procedure: Cell proliferation was evaluated using trypan blue exclusion assay as described previously with minor modification. Cells were plated into 6-well plates at a density of 5 × 10^4 cells/well. After incubation overnight, cells were treated with test samples in the presence or absence of HG for 24-72 h. Cells exposed to 0.2% Trypan blue were then counted in a hemocytometer, and cells stained with Trypan blue were excluded. Percentage of viable cells was calculated based on the ratio of viable cells to total cell population in each well. The proliferation rate was calculated based on the number of viable cells in HG or sample-treated groups versus the NG-treated group.

[5] = system: p16INK4A, p21CIP1 and SMP30; assay: Western blot of senescence-associated marker proteins in HG-induced HNDFs; type: cell-based, human; settings: 10 μM with HG (30 mM) for 72 h, immunoblotting
Procedure: Cells were lysed by either RIPA lysis buffer or nuclear and cytoplasmic extraction reagents (Thermo Fisher Scientific). Protein concentrations were determined by Bio-Rad protein assay reagent (Bio-Rad Laboratories, Hercules, CA). Equal amounts of protein samples (60 μg) were separated by 7-12% SDS-PAGE and the separated proteins were transferred onto polyvinylidene […] (PVDC) membrane overnight. The transferred protein membranes were blocked with 5% non-fat dried milk for 30 min, followed by incubation with specific primary antibodies overnight, and either horseradish peroxidase-conjugated goat anti-rabbit or anti-mouse antibodies for 2 h. The blots were detected using VL Chemi-Smart 3000 (Viogene Biotek, Sunnyvale, CA) with the enhanced chemiluminescence (ECL) western blotting reagent (Millipore, Billerica, MA).

HUVECs = assay: Cell viability of HUVECs (MTT assay); type: cell-based, human; settings: ANM 10 μM or RES 5 μM for 48 h
Procedure: Human normal dermal fibroblasts ([…]) and human umbilical vein endothelial cells (HUVECs) were obtained from the Bioresource Collection and Research Center (BCRC), Hsinchu, Taiwan. […] Likewise, HUVECs were grown in M-199 medium supplemented with ECGS, heparin, 10% FBS and 100 U/mL penicillin and streptomycin at 37°C in a fully humidified atmosphere of 5% CO2. High-glucose treatment was performed by treating cells with 15 or 30 mM D-glucose (HG) for 24-72 h. […] Cell viability was assessed by MTT colorimetric assay. […] After treatment with HG (15 and 30 mM) in the presence or absence of samples for 24-72 h, culture media was withdrawn and incubated with MTT (1 mg/mL) in fresh medium for 2 h. The MTT formazan crystals were dissolved in 400 μL of DMSO and the samples were measured at 570 nm […] using an ELISA microplate reader (Bio-Tek Instruments, Winooski, VT). The percentage of cell viability (%) was calculated as (A570 of treated cells/A570 of untreated cells) × 100.

[6] = system: C. elegans wild type Bristol N2; assay: Life span assay in C. elegans; type: in vivo, Caenorhabditis elegans; settings: ANM 10 μM or RES 438 μM alone, compared to the control
Procedure: The wild type Bristol N2 strain was used in this study. C. elegans and Escherichia coli OP50 strain were obtained from the Caenorhabditis Genetic Center, University of Minnesota (Minneapolis-St. Paul, MN). Worms were maintained at 20°C on nematode growth medium (NGM). Hatched worms (L1-stage larvae) were transferred to fresh agar plates and cultured with E. coli OP50 as a food source until they reached the L4 larvae stage. Synchronization of worm cultures was achieved by hypochlorite treatment of gravid hermaphrodites. […] Control worms were treated with 0.1% DMSO. All worms were kept 20°C to develop adulthood. Surviving and dead animals were counted daily (starting from the first day of adulthood) until all worms had died. […] Worms suffering from internal hatch (a defect in egg-laying) and those that crawled off the NGM plate were not included in the life-span assay. During the reproductive period, adult worms were transferred to fresh NGM plates every and then every other day thereafter. Life span assay result was obtained from three independent assays.

[7] = Cell-free DPPH free-radical scavenging assay
Procedure: Therefore, next to determine whether ANM acts directly as a free-radical scavenger, we performed a cell-free DPPH free-radical scavenging assay.
Figure 5 Antcin M activates Nrf2-dependent anti-oxidant defense in HNDFs A. To determine the free-radical scavenging effect of ANM, cell-free DPPH assay was performed. […] Results expressed as mean ± S.E.M of three indipendent expriments.

HNDFs [8] = assay: Cell-cycle analysis by flow cytometry (PI) in HG-induced HNDFs; type: cell-based, human; settings: NAC 100 μM with HG (30 mM) for 72 h
Procedure: HNDFs at a density of 5 × 10^5 cells in 10 cm dishes were treated with ANM or NAC in the presence or absence of HG for 72 h. Cells were collected, washed with PBS and fixed in 95% cold-ethanol, and kept at −20°C overnight. The cell pellet was then washed again with PBS and centrifuged at 1500 × g for 5 min. The pellet was re-suspended in 1 mL PI/Triton X-100 (20 μg/mL PI, 0.1% Triton X-100 and 0.2 mg/mL RNAse) and incubated on ice for 30 min. The total cellular DNA content was analyzed with a flow cytometer (Beckman Coulter FC500). Data were acquired and analyzed using CXP software (Beckman Coulter).

HNDFs [9] = assay: Flow cytometric detection of intracellular ROS (DCFH2-DA) in HNDFs; type: cell-based, human
Procedure: Intracellular ROS accumulation was determined using the dye DCFH2-DA following a procedure described earlier. Briefly, HNDFs (1 × 10^5 cells/well) were seeded in 6-well plates and incubated with HG in the presence or absence of test samples for 24 h. At the end of the incubation, the culture supernatant was removed and cells were washed twice with PBS. DCFH2-DA (10 μM) was mixed with 500 μL MEM and added to the culture plate. After incubation for 30 minutes, cells were collected by trypsin and the fluorescence shift was quantified using a flow cytometer (Beckman Coulter). Data were acquired and analyzed using CXP software (Beckman Coulter).

[10] = Homo sapiens, 72 h, 1, 5, 10 and 20 μM for 72 h

## C=C(CCC(C)C1CCC2C3=C(C(=O)CC21C)C1(C)CCC(=O)C(C)C1CC3O)C(C)C(=O)O (centres unmarked) [ANC, antcin C]
HNDFs [1]; [10]
  IC50: > 50 µM
HNDFs [1]
  cytotoxicity to HNDFs up to the high treatment concentration: did not show significant cytotoxicity

## Oc1c2ccccc2c2c3c(cccc13)N=N2 [SP600125, reference compound]
[2]
  ANM-induced ARE luciferase activity after inhibitor pretreatment: partially or barely inhibited
HNDFs [3]
  HG-induced SA-β-gal activity in kinase inhibitor-treated cells: barely observed

## C=C(CC[C@@H](C)[C@H]1CC[C@H]2C3=C(C(=O)C[C@]12C)[C@@]1(C)CCC(=O)[C@@H](C)[C@@H]1CC3)C(C)C(=O)O (some centres unmarked) [ANA, antcin A]
HNDFs [1]; [10]
  IC50: > 50 µM
HNDFs [4]
  cell proliferation compared to the HG treatment group: partially increased cell proliferation
HNDFs [3]
  SA-β-gal positive cells: 7.46 fold
[5]
  HG-induced upregulation of p16INK4A and p21CIP1 proteins: moderate inhibition

## O=c1cc(N2CCOCC2)oc2c(-c3ccccc3)cccc12 [LY294002, reference compound]
[2]
  ANM-induced ARE luciferase activity after inhibitor pretreatment: effectively suppressed
HNDFs [3]
  HG-induced SA-β-gal activity in kinase inhibitor-treated cells: reduced

## C=C(CC[C@@H](C)[C@H]1CC[C@H]2C3=C(C(=O)C[C@]12C)[C@@]1(C)CC[C@@H](O)[C@](C)(O)[C@@H]1C[C@@H]3O)C(C)C(=O)O (some centres unmarked) [ANK, antcin K]
HNDFs [1]; [10]
  IC50: 2.89 µM

## Oc1ccc(/C=C/c2cc(O)cc(O)c2)cc1 [RES, resveratrol, reference compound]
HUVECs
  cell viability of HUVECs, treatment alone: did not affect cell viability
[6]
  life span of C. elegans under normal condition: highly comparable

## COc1cccc(-c2cc(=O)c3ccccc3o2)c1N [PD98059, reference compound]
[2]
  ANM-induced ARE luciferase activity after inhibitor pretreatment: effectively suppressed
HNDFs [3]
  HG-induced SA-β-gal activity in kinase inhibitor-treated cells: did not affect

## C=C(CC[C@@H](C)[C@H]1CC[C@H]2C3=C(C(=O)C[C@]12C)[C@@]1(C)CCC(=O)[C@@H](C)[C@@H]1CC3=O)[C@H](C)C(=O)O [ANB, antcin B]
HNDFs [1]; [10]
  IC50: 7.11 µM

## CC(=O)N[C@@H](CS)C(=O)O [NAC, N-acetylcysteine, reference compound]
[7]
  free-radical scavenging in the cell-free system: potent free-radical scavenging effect
[2]; ANM 10 μM or NAC 100 μM alone, control 1-fold
  ARE luciferase activity: 6.3 fold
[2]; co-treated with HG (30 mM), ANM 10 μM or NAC 100 μM, HG alone 2.5-fold
  ARE luciferase activity: 8.2 fold
HNDFs [8]
  HG-induced cell-cycle arrest: partially blocked
HNDFs [9]; ANM 10 μM or NAC 100 μM with HG (30 mM) for 24 h, HG alone 426.2%
  HG-induced ROS generation: 176.58%
HNDFs [9]; ANM 10 μM or NAC 100 μM without HG, 24 h
  ROS generation, treatment alone: did not significantly increase ROS generation

## C=C(CCC(C)C1CCC2C3=C(C(=O)C(O)C21C)C1(C)CCC(O)C(C)C1CC3=O)C(C)C(=O)O (centres unmarked) [ANH, antcin H]
HNDFs [1]; 1, 5, 10 and 20 μM for 72 h
  IC50: > 50 µM
HNDFs [1]
  cytotoxicity to HNDFs up to the high treatment concentration: did not show significant cytotoxicity
HNDFs [4]
  cell proliferation compared to the HG treatment group: partially increased cell proliferation
HNDFs [3]
  SA-β-gal positive cells: 8.13 fold
[5]
  HG-induced upregulation of p16INK4A and p21CIP1 proteins: moderate inhibition

## C[S+]([O-])c1ccc(-c2nc(-c3ccncc3)c(-c3ccc(F)cc3)[nH]2)cc1 (centres unmarked) [SB203580, reference compound]
[2]
  ANM-induced ARE luciferase activity after inhibitor pretreatment: partially or barely inhibited
HNDFs [3]
  HG-induced SA-β-gal activity in kinase inhibitor-treated cells: barely observed
